“Also recorded” adds a separate entry of the source. Read-outs that look alike come from different tables or passages of the source.
Assays:
HCT116 tumor cells = experiment: qPCR structure-splicing profile over the gene panel; type: cell-based, human; details: HCT116, 24 h, 100, 250, 500 nM, compared to 1
Description: HCT116 tumor cells were treated with analogues at 100 nM (light grey), 250 nM (grey), or 500 nM (black) for 24 h and then cellular RNA was isolated and purified for qPCR. Primers were designed to evaluate intron retention or exon skipping, direct responses to splice modulator treatment. Genes evaluated included those involved in splicing regulation (SF3A1, SF3A3, SF3B1, SF3B2), apoptosis (MCL-1L), and protein folding (DNAJB1), relative to the unspliced control GAPDH. For alternative splicing regulator (SF2), primers were designed to evaluate gene expression, which changes in response splice modulator treatment for SF2 relative to the unspliced control GAPDH. (—) denotes untreated cells.
For these studies, we evaluated the expression of genes involved in splicing regulation (SF3A1, SF3A3, SF3B1, SF3B2), apoptosis (MCL-1L), protein folding (DNAJB1), and cell cycle regulation (AURKA, PLK-1) relative to the unspliced control GAPDH. Primers were designed to evaluate intron retention or exon skipping, direct responses to splice modulator treatment. The master splicing regulator alternative splicing factor (SF2) was also evaluated, with the primers for this gene designed to evaluate overall gene expression, which changes in response to splice modulator treatment.
From this 4 h study (FIG. 14), a small set of analogs (1, 1b, 1g, 1d, 1e, 1i and 1j) were selected to evaluate if effects on splicing when presented for a longer 24 h period. […] Using identical procedures as that used for 4 h, HCT116 cells were treated with three concentrations (100 nM, 250 nM and 500 nM) of each analog for 24 h. Multiple concentrations were used as a means to check further validate the use of the GI50 concentration in our prior study (FIG. 14). As before, none of the concentrations tested led to significant changes in cell viability over the 24-hour time window, ensuring that changes in gene expression were not due to cell death.
(§1) Cells were treated with 1 or 1a-1j in media (McCoy's 5a (Life Technologies) supplemented with 10% FBS, 2 mM L-glutamine, and 100 U mL^−1 of penicillin and 100 μg mL^−1 of streptomycin 0.5% DMSO) for 4 h or 24 h. Untreated cells were considered were used as negative control. Total RNA was isolated using mirVana miRNA isolation kit (Life Technologies). A 1 μg sample of RNA was subjected to DNAseI from a TURBO DNA free kit (Life Technologies). The cDNA was prepared by using SuperScript III reverse transcriptase kit (Life Technologies). The amount of unspliced RNA for different genes was determined using Power SYBR Green PCR master mix (Applied Biosystems) by qPCR using specific primers for each gene. qPCR using 2.5 μM of each primer was performed on 5 ng of the obtained cDNA. qPCR conditions were as follows: 95° C. for 10 min for one cycle, then 95° C. for 10 min for one cycle, then 95° C. for 30 s, 55° C. for 60 s, 72° C. for 60 s, for 40 cycles using the MXPro. Quantification cycle (Cq) values were identified for each sample, and then RNA levels were calculated using 2-ΔΔCT method. GAPDH was used as a control for normalization. At least three replicates were conducted for each compound. Namely, all genes explored in this study were evaluated from the same cell cultures. Here, individual cultures were used for each compound explored and at least three replicates were used for each compound. While experimental variation occurred between the different compound treatments, the levels of the different intron retention, exon skipping or RNA expression were collected from the same cellular material. Statistics were calculated using a standard one-way ANOVA; p values were represented so that * signifies p<0.0001. HCT116 were treated with analogs 1-1j ranging from 0.1-5000 nM for 72 hours, then cell viability was measured using the MTS assay. GI50 values and confidence intervals were calculated using GraphPad (Table 12).

[1] = test system: HCT116 colorectal carcinoma cells; experiment: MTS cell viability / cell growth inhibition assay; type: cell-based, human; details: for GI50: Homo sapiens, HCT-116, 72 h
Description: With milligram quantities of 1a-1i at hand, we began our studies to evaluate the relative efficacy of each analogue using cell growth inhibition studies in HCT116 colorectal carcinoma cells. As reported in FIG. 3, GI50 values were collected for each analog after a 72 h treatment using the MTS cell viability assay (Table 12). Under these conditions, the natural FD-895 (1), 3S-FD-895 (1a) 17S-FD-895 (1d), 17-methoxy-FD-895 (1e) provided activities of <10 nM.
HCT-116 cells was cultured in McCoy's 5a (Life Technologies) supplemented with 10% fetal bovine serum (FBS), 2 mM L-glutamine, and 100 U mL^−1 of penicillin and 100 μg mL^−1 of streptomycin at 37° C. in an atmosphere of 5% CO2. Compounds were dissolved in DMSO (MilliporeSigma). Cells were treated with 1-1j in media with ≥0.5% DMSO for 4-72 h.
Studies were conducted in […] cell culture plates. HCT-116 plated at 5×10^3 cells/well were cultured for 24 h and then treated with analogs 1-1j for 4-72 h, then washed twice with 100 μL PBS. PBS (100 μL) was added to each well, followed by 20 μL of CellTiter Aqueous One Solution (Promega). After 2 h at 37° C., absorbance readings were taken at 490 nm (test wavelength) and 690 nm (reference wavelength). GI50 values were calculated in Prism (GraphPad) using greater 3 replicates.
as §1

Compound	splicing activity over the genes tested (HCT116 tumor cells)	cell growth inhibitory activity compared to FD-895 ([1]; HCT-116 cells)	GI50 ([1]; read-out: GI50 value) [nM]	GI50 ([1]; read-out: GI50 value (text)) [nM]	fold less effective compared to 1a or 1d ([1]; HCT116 GI50, compared to 1a or 1d) [fold]	fold less active (GI50) than 1 ([1]; HCT116 cell growth inhibition, compared to 1) [fold]
CC[C@H](OC)[C@@H](C)[C@H]1O[C@@H]1[C@@H](O)[C@H](C)/C=C/C=C(\C)[C@H]1OC(=O)C[C@H](O)CC[C@@](C)(O)[C@@H](OC(C)=O)/C=C/[C@@H]1C [Analog 1d, 17S-FD-895]	modest switch in gene selectivity	retained potency; also recorded: comparable inhibitor of cell growth as 1	2.06	< 10	–	–
CC[C@H](OC)[C@@H](C)[C@H]1O[C@@H]1[C@@H](O)[C@H](C)/C=C/C=C(\C)[C@H]1OC(=O)C[C@@H](O)CC[C@@](C)(O)[C@@H](OC(C)=O)/C=C/[C@@H]1C [Analog 1g, 3S,17S-FD-895]	–	–	131	130	60	75
CC[C@H](OC)[C@@H](C)[C@@H]1O[C@H]1[C@@H](O)[C@H](C)/C=C/C=C(\C)[C@H]1OC(=O)C[C@H](O)CC[C@@](C)(O)[C@@H](OC(C)=O)/C=C/[C@@H]1C [Analog 1i, 17S,18S,19S-FD-895]	drastic reduction in splicing activity	–	446	450	–	–
CC[C@@H](OC)[C@H](C)[C@H]1O[C@@H]1[C@@H](O)[C@H](C)/C=C/C=C(\C)[C@H]1OC(=O)C[C@H](O)CC[C@@](C)(O)[C@@H](OC(C)=O)/C=C/[C@@H]1C [Analog 1j, 17S,20S,21R-FD-895]	splicing profile comparable to 1i	–	262	260	–	–

— patent US12172988B2, “Anticancer and antifungal splice modulators” (priority 2021, dated 2024)
